From patent US20080076760A1, “2,3,4,5-TETRAHYDRO-1H-1,5-BENZODIAZEPINE DERIVATIVE AND MEDICINAL COMPOSITION” (priority 2004, published 2008)

What was measured:
[1] = biological target: human vasopressin V1a receptor (Homo sapiens, UniProt P37288); test: Receptor binding study, [3H]AVP displacement on CHO cell membranes, human V1a; conditions: [3H]AVP displacement, CHO cell membrane, 25° C., one hour; read-out: Human V1a Ki
Protocol: (§1) (ii) Receptor Binding Study
(§2) Assay was performed using 50 mM of Tris-HCl (pH=7.4) (total amount: 250 μL) (buffer composition: containing […] of MgCl2 and 0.1% BSA), and incubation was performed at room temperature (25° C.) for one hour. After incubation, suck filtration was immediately performed and reaction was completed when the membrane sample was collected on a glass fiber filter fitted with the microplate. After the filter was washed with an ice-cold Tris-HCl buffer (50 mM Tris-HCl, 10 mM MgCl2, pH 7.4), radioactivity measurement was performed. Nonspecific binding was determined using nonradioactive-labeled AVP (1 μM).

[2] = biological target: human vasopressin V2 receptor (Homo sapiens, UniProt P30518); test: Receptor binding study, [3H]AVP displacement on CHO cell membranes, human V2; conditions: [3H]AVP displacement, CHO cell membrane, 25° C., one hour; read-out: Human V2 Ki
Sequence of human vasopressin V2 receptor (P30518 whole entry): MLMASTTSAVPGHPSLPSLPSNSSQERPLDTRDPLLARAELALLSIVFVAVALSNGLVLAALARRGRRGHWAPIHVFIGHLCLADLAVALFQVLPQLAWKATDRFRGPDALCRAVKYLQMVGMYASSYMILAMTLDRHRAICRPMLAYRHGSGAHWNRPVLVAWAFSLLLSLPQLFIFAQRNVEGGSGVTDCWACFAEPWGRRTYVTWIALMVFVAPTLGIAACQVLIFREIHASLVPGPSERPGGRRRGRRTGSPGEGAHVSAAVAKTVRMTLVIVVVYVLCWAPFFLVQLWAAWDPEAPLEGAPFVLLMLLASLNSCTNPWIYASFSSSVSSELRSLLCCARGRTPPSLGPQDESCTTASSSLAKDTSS
Protocol: Preparation of Chinese hamster ovary (Cho) cell which expresses human vasopressin receptor subtype and production of membrane sample of the cell was conducted according to the method of Tahara et al. (Br. J. Pharmacol., 125, 1463-1470, 1998).
as §1
as §2, with “In saturation binding experiment, the membrane sample and [^3H]AVP of several concentrations (0.125 nM to 4.0 nM) were mixed and incubated in microplate wells. In displacement experiment, [^3H]AVP of constant concentrations (0.5 nM to 1.0 nM) and the membrane sample were mixed with Compound A of several concentrations, and incubation was performed. Assay” for “Assay”

Sequence of human vasopressin V1a receptor (P37288 whole entry): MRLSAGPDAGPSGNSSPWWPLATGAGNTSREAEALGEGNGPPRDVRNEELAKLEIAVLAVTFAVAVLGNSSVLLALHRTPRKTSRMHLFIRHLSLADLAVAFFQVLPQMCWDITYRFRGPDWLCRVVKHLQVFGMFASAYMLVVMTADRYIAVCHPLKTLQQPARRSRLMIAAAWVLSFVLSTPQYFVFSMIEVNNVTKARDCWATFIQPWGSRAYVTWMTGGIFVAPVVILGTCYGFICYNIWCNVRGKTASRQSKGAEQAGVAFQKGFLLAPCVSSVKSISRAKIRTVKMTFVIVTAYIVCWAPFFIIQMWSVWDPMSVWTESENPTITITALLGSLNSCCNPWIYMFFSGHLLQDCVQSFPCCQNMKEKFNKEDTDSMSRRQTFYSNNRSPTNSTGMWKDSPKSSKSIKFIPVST

Molecule CC(C)N1CCN(CCCOc2cc(C(=O)N3CC[C@H](C)Nc4ccccc43)ccc2-c2ccc3[nH]ccc3c2)CC1 [Example 99, (4S)-1-[4-(1H-indol-5-yl)-3-[3-(4-isopropyl-1-piperazinyl)propoxy]benzoyl]-4-methyl-2,3,4,5-tetrahydro-1H-1,5-benzodiazepine] has a Ki [1] of 0.3 nM and a Ki [2] of 3.4 nM.

CC(=O)Nc1cc(C(=O)N2CCC(C)Nc3ccccc32)ccc1-c1ccc2[nH]ccc2c1 (stereo not shown) [Example 3, N-[2-(1H-indol-5-yl)-5-[(4-methyl-2,3,4,5-tetrahydro-1H-1,5-benzodiazepin-1-yl)carbonyl]phenyl]acetamide] showed a Ki [1] of 0.18 nM and a Ki [2] of 22 nM.

Molecule C[C@@H]1CCN(C(=O)c2ccc(-c3ccc4[nH]ccc4c3)c(OCCN3CCOCC3)c2)c2ccccc2N1 [Example 66, (4R)-1-[4-(1H-indol-5-yl)-3-[2-(4-morpholinyl)ethoxy]benzoyl]-4-methyl-2,3,4,5-tetrahydro-1H-1,5-benzodiazepine] has a Ki [1] of 0.41 nM and a Ki [2] of 3.6 nM.

With CCCNCCCOc1cc(C(=O)N2CC[C@H](C)Nc3ccccc32)ccc1-c1ccc(NCC)cc1 [Example 165, N-ethyl-4′-[[(4S)-4-methyl-2,3,4,5-tetrahydro-1H-1,5-benzodiazepin-1-yl]carbonyl]-2′-[3-(propylamino)propoxy][1,1′-biphenyl]-4-amine] the Ki [1] was 0.28 nM and the Ki [2] was 92 nM.

With C[C@H]1CCN(C(=O)c2ccc(-c3ccc4[nH]ccc4c3)c(OCCCN3CCCCC3)c2)c2ccccc2N1 [Example 71, (4S)-1-[4-(1H-indol-5-yl)-3-[3-(1-piperidinyl)propoxy]benzoyl]-4-methyl-2,3,4,5-tetrahydro-1H-1,5-benzodiazepine] the Ki [1] was 0.16 nM and the Ki [2] was 11 nM.

In the case of CCC1CCN(C(=O)c2ccc(-c3ccc4[nH]ccc4c3)c(NC(C)=O)c2)c2ccccc2N1 (stereo not shown) [Example 8, N-[5-[(4-ethyl-2,3,4,5-tetrahydro-1H-1,5-benzodiazepin-1-yl)carbonyl]-2-(1H-indol-5-yl)-phenyl]acetamide], the Ki [1] is reported as 0.16 nM and the Ki [2] is reported as 15 nM.

Work on C[C@H]1CCN(C(=O)c2ccc(-c3ccc4[nH]ccc4c3)c(OCCCCN3CCOCC3)c2)c2ccccc2N1 [Example 67, (4S)-1-[4-(1H-indol-5-yl)-3-[4-(4-morpholinyl)butoxy]benzoyl]-4-methyl-2,3,4,5-tetrahydro-1H-1,5-benzodiazepine] yielded a Ki [1] of 0.19 nM and a Ki [2] of 8.7 nM.

Molecule C[C@H]1CCN(C(=O)c2ccc(-c3ccc4[nH]ccc4c3)c(OCCN3CCOCC3)c2)c2ccccc2N1 [Example 59, (4S)-1-[4-(1H-indol-5-yl)-3-[2-(4-morpholinyl)ethoxy]benzoyl]-4-methyl-2,3,4,5-tetrahydro-1H-1,5-benzodiazepine] has a Ki [1] of 0.23 nM and a Ki [2] of 0.89 nM.

Molecule C[C@H]1CCN(C(=O)c2ccc(-c3ccc4[nH]ccc4c3)c(OCCCN3CCN(C)CC3)c2)c2ccccc2N1 [Example 70, (4S)-1-[4-(1H-indol-5-yl)-3-[3-(4-methyl-1-piperazinyl)propoxy]benzoyl]-4-methyl-2,3,4,5-tetrahydro-1H-1,5-benzodiazepine] has a Ki [1] of 0.19 nM and a Ki [2] of 6.9 nM.

With C[C@H]1CCN(C(=O)c2ccc(-c3ccc4[nH]ccc4c3)c(OCCCN3C(=O)CSC3=O)c2)c2ccccc2N1 [Example 100, 3-[3-[2-(1H-indol-5-yl)-5-[[(4S)-4-methyl-2,3,4,5-tetrahydro-1H-1,5-benzodiazepin-1-yl]carbonyl]phenoxy]propyl]-1,3-thiazolidine-2,4-dione] the Ki [1] was 0.46 nM and the Ki [2] was 3.2 nM.

For C[C@H]1CCN(C(=O)c2ccc(-c3ccc4[nH]ccc4c3)c(OCCCN)c2)c2ccccc2N1 [Example 38, 3-[2-(1H-indol-5-yl)-5-[[(4S)-4-methyl-2,3,4,5-tetrahydro-1H-1,5-benzodiazepin-1-yl]carbonyl]phenoxy]propylamine], the Ki [1] was 0.086 nM and the Ki [2] was 11 nM.
